Measured values taken from PubChem BioAssay AID248 (DTP/NCI, 2004).
Values joined by “and” are separate entries in the source; they are usually repeats but may differ in a detail not shown here. Equal values may be shown once. Toxic doses and inconclusive results are not listed. Rule as the data show it: active = T/C of 150% or more; inactive = T/C below 125%.

Test system: L1210 leukemia ip in BDF1 mice, survival T/C
Assay: NCI In Vivo Anticancer Drug Screen. Data for tumor model L1210 Leukemia (intraperitoneal) in B6D2F1 (BDF1) mice
Details: endpoint: mean survival time, higher = longer survival
Method in brief: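 Transplantable tumor model; survival measured in treated vs vehicle control mice. Value = treated/control.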

[1] = dose: 100.0 mg/kg/injection, schedule: Q01DX001 (ip), vehicle: saline with Tween-80
[2] = dose: 100.0 mg/kg/injection, schedule: Q01DX009 (ip), vehicle: saline with Tween-80
[3] = dose: 100.0 mg/kg/injection, schedule: Q04DX002 (ip), vehicle: saline with Tween-80
[4] = dose: 200.0 mg/kg/injection, schedule: Q01DX001 (ip), vehicle: saline with Tween-80
[5] = dose: 200.0 mg/kg/injection, schedule: Q01DX009 (ip), vehicle: saline with Tween-80
[6] = dose: 200.0 mg/kg/injection, schedule: Q04DX002 (ip), vehicle: saline with Tween-80
[7] = dose: 400.0 mg/kg/injection, schedule: Q01DX001 (ip), vehicle: saline with Tween-80
[8] = dose: 400.0 mg/kg/injection, schedule: Q01DX009 (ip), vehicle: saline with Tween-80
[9] = dose: 400.0 mg/kg/injection, schedule: Q04DX002 (ip), vehicle: saline with Tween-80
[10] = dose: 25.0 mg/kg/injection, schedule: Q01DX009 (ip), vehicle: Klucel (hydroxypropylcellulose) (HPC)
[11] = dose: 100.0 mg/kg/injection, schedule: Q01DX009 (ip), vehicle: Klucel (hydroxypropylcellulose) (HPC)
[12] = dose: 50.0 mg/kg/injection, schedule: Q04DX002 (ip), vehicle: Klucel (hydroxypropylcellulose) (HPC)
[13] = dose: 100.0 mg/kg/injection, schedule: Q04DX002 (ip), vehicle: Klucel (hydroxypropylcellulose) (HPC)
[14] = dose: 100.0 mg/kg/injection, schedule: Q04DX002 (ip), vehicle: other
[15] = dose: 200.0 mg/kg/injection, schedule: Q04DX002 (ip), vehicle: other
[16] = dose: 50.0 mg/kg/injection, schedule: Q01DX009 (ip), vehicle: saline with Tween-80
[17] = dose: 200.0 mg/kg/injection, schedule: Q01DX009 (ip), vehicle: Klucel (hydroxypropylcellulose) (HPC)
[18] = dose: 400.0 mg/kg/injection, schedule: Q01DX009 (ip), vehicle: Klucel (hydroxypropylcellulose) (HPC)
[19] = dose: 100.0 mg/kg/injection, schedule: Q04DX003 (ip), vehicle: saline with Tween-80
[20] = dose: 100.0 mg/kg/injection, schedule: Q04DX003 (ip), vehicle: saline
[21] = dose: 200.0 mg/kg/injection, schedule: Q04DX003 (ip), vehicle: saline
[22] = dose: 400.0 mg/kg/injection, schedule: Q04DX003 (ip), vehicle: saline

Measured: T/C

CCc1cc(C)cc(OC(=O)Nc2cc(Cl)ccc2OC)c1
inactive: [1] 104 % of control | [2] 95 % of control | [3] 94 % of control and 95 % of control | [4] 93 % of control | [5] 93 % of control | [6] 95 % of control and 90 % of control | [7] 95 % of control | [8] 119 % of control | [9] 95 % of control and 86 % of control

COC(=O)CCCCCN1C(=O)c2cccc([N+](=O)[O-])c2C1=O
inactive: [1] 104 % of control | [4] 97 % of control | [7] 100 % of control

Nc1cc(N)ncn1
inactive: [10] 101 % of control | dose: 50.0 mg/kg/injection, schedule: Q01DX009 (ip), vehicle: Klucel (hydroxypropylcellulose) (HPC) 98 % of control | [11] 102 % of control

OC(c1ccccc1)(c1ccccc1)c1ccccc1
inactive: dose: 9.0 mg/kg/injection, schedule: Q01DX015 (ip), vehicle: saline 95 % of control | dose: 18.0 mg/kg/injection, schedule: Q01DX015 (ip), vehicle: saline 101 % of control | dose: 36.0 mg/kg/injection, schedule: Q01DX015 (ip), vehicle: saline 98 % of control | [12] 97 % of control | dose: 72.0 mg/kg/injection, schedule: Q01DX015 (ip), vehicle: saline 98 % of control | [13] 95 % of control and 103 % of control | [14] 95 % of control | dose: 143.0 mg/kg/injection, schedule: Q01DX015 (ip), vehicle: saline 91 % of control | dose: 200.0 mg/kg/injection, schedule: Q04DX002 (ip), vehicle: Klucel (hydroxypropylcellulose) (HPC) 94 % of control | [15] 95 % of control | dose: 286.0 mg/kg/injection, schedule: Q01DX015 (ip), vehicle: saline 89 % of control | dose: 400.0 mg/kg/injection, schedule: Q04DX002 (ip), vehicle: Klucel (hydroxypropylcellulose) (HPC) 103 % of control and 88 % of control | dose: 400.0 mg/kg/injection, schedule: Q04DX002 (ip), vehicle: other 92 % of control | dose: 572.0 mg/kg/injection, schedule: Q01DX015 (ip), vehicle: saline 98 % of control

CCC(C)C1(C)C(=O)N(C)C(=S)N(C)C1=O (stereo unspecified)
inactive: dose: 5.0 mg/kg/injection, schedule: Q01DX001 (ip), vehicle: saline 95 % of control | dose: 10.0 mg/kg/injection, schedule: Q01DX001 (ip), vehicle: saline 91 % of control | dose: 20.0 mg/kg/injection, schedule: Q01DX001 (ip), vehicle: saline 96 % of control | dose: 40.0 mg/kg/injection, schedule: Q01DX001 (ip), vehicle: saline 89 % of control

Cc1c(NS(=O)(=O)c2ccccc2)c(C)c(NS(=O)(=O)c2ccccc2)c(C)c1NS(=O)(=O)c1ccccc1
inactive: [16] 96 % of control | [2] 96 % of control | [5] 88 % of control

Nc1ccccc1SC(CC(=O)c1ccc(-c2ccccc2)cc1)c1ccco1 (stereo unspecified)
inactive: [2] 94 % of control | [3] 105 % of control | [5] 91 % of control | [6] 102 % of control | [8] 91 % of control | [9] 91 % of control

Cc1csc2ncnc(Cl)c12
inactive: dose: 25.0 mg/kg/injection, schedule: Q04DX002 (ip), vehicle: saline with Tween-80 98 % of control | dose: 50.0 mg/kg/injection, schedule: Q04DX002 (ip), vehicle: saline with Tween-80 91 % of control | [3] 94 % of control

Cc1cc2nc(N)sc2cc1C
inactive: [10] 101 % of control | dose: 50.0 mg/kg/injection, schedule: Q04DX003 (ip), vehicle: Klucel (hydroxypropylcellulose) (HPC) 100 % of control | dose: 100.0 mg/kg/injection, schedule: Q04DX003 (ip), vehicle: Klucel (hydroxypropylcellulose) (HPC) 89 % of control

CCC1(CCCCCl)OCCO1
inactive: [11] 103 % of control | [17] 97 % of control | [18] 103 % of control

c1ccc(SSc2ccccc2)cc1
inactive: dose: 25.0 mg/kg/injection, schedule: Q01DX009 (ip), vehicle: saline with Tween-80 89 % of control | dose: 25.0 mg/kg/injection, schedule: Q04DX003 (ip), vehicle: saline with Tween-80 95 % of control | [16] 86 % of control | dose: 50.0 mg/kg/injection, schedule: Q04DX003 (ip), vehicle: saline with Tween-80 103 % of control | [19] 97 % of control

CC1CCCC/C1=N/NC(N)=O (stereo unspecified)
inactive: [11] 97 % of control | [20] 97 % of control | [21] 88 % of control | [22] 95 % of control

O=C(N/N=C/c1cccc(F)c1)c1ccc(Cl)cc1
inactive: [16] 94 % of control | [2] 91 % of control | [5] 94 % of control

NC(=S)N/N=C/c1ccc(Cl)s1
inactive: dose: 25.0 mg/kg/injection, schedule: Q04DX002 (ip), vehicle: Klucel (hydroxypropylcellulose) (HPC) 95 % of control | [12] 95 % of control | [13] 98 % of control and 100 % of control

CCOC(=O)CCC1(C(=O)OC)C(=O)CCCCCCC1C(=O)OC (stereo unspecified)
inactive: [19] 103 % of control | dose: 200.0 mg/kg/injection, schedule: Q04DX003 (ip), vehicle: saline with Tween-80 99 % of control | dose: 400.0 mg/kg/injection, schedule: Q04DX003 (ip), vehicle: saline with Tween-80 96 % of control

CSc1ncnc2c1c(Br)cn2C1OC(CO)C(O)C1O (stereo unspecified)
inactive: dose: 100.0 mg/kg/injection, schedule: Q01DX001 (ip), vehicle: saline 100 % of control | dose: 200.0 mg/kg/injection, schedule: Q01DX001 (ip), vehicle: saline 108 % of control | dose: 400.0 mg/kg/injection, schedule: Q01DX001 (ip), vehicle: saline 114 % of control

Nc1c(O)c(Cl)cc(Cl)c1Cl
inactive: [14] 110 % of control | [15] 107 % of control

O=[N+]([O-])c1cc(Br)ccc1N1CCCC1
inactive: [20] 88 % of control | [21] 101 % of control | [22] 93 % of control

O=[N+]([O-])c1ccc(C(Br)C(Br)c2ccccc2Br)cc1 (stereo unspecified)
inactive: [11] 98 % of control | [20] 96 % of control | [17] 102 % of control | [21] 98 % of control | [18] 98 % of control | [22] 96 % of control

C=C1C(=O)CCC1C(=O)O (stereo unspecified)
inactive: dose: 100.0 mg/kg/injection, schedule: Q01DX009 (ip), vehicle: saline 101 % of control | dose: 200.0 mg/kg/injection, schedule: Q01DX009 (ip), vehicle: saline 110 % of control | dose: 400.0 mg/kg/injection, schedule: Q01DX009 (ip), vehicle: saline 112 % of control

C/C=C\C(=O)OCC(C)CCC (stereo unspecified)
inactive: [3] 97 % of control | [6] 102 % of control

CC(O)C1OC1C(C)O (stereo unspecified)
inactive: dose: 25.0 mg/kg/injection, schedule: Q04DX002 (ip), vehicle: saline 93 % of control | dose: 50.0 mg/kg/injection, schedule: Q04DX002 (ip), vehicle: saline 101 % of control | dose: 100.0 mg/kg/injection, schedule: Q04DX002 (ip), vehicle: saline 112 % of control
